Each structure is given as a SMILES string. Like-named read-outs stand apart in the source and are kept apart here.

Assay [1] concerns the target T1, SFRP-1 (Homo sapiens, UniProt Q8N474).
T1 sequence (Q8N474 32-314): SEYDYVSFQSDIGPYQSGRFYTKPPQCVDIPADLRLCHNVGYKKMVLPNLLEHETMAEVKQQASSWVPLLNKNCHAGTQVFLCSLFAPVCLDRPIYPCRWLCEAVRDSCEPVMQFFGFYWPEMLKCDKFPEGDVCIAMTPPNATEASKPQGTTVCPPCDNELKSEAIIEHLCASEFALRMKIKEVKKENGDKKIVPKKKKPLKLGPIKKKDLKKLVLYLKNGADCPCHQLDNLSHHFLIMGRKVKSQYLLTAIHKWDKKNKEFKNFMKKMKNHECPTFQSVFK
In words: Fluorescence polarization binding assay (competitive displacement of a probe compound from SFRP-1).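 Also: test compound competes with a fluorescent probe held by SFRP-1, seen as a drop in probe anisotropy after incubation in darkness, with anisotropy as function of rising compound dose.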 To be noted: fluorescence anisotropy, 45 nM SFRP-1, 20 nM probe. On the technique in general: Polarisation of emitted light reports the rotation of a fluorescent probe.

Assay [2] concerns the target T1, SFRP-1. In words: Cell-based assay for in vitro measurement of SFRP-1/SARP2 antagonist activity (U2OS cells co-transfected with 16x TCF-tk-Luciferase reporter, Wnt and hSFRP-1).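 Also: U2OS cells co-transfected with a TCF-tk luciferase reporter, a Wnt vector, hSFRP-1 or empty vector and CMV-βgal, luciferase luminescence read in cell lysates alongside βgal activity.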 Conditions: U2OS. (In general: A reporter such as luciferase makes a cellular process visible.)
Setting [3] is: read-out: Fold Induction with SFRP-1, Conc 15 μM, with SFRP-1, fold induction over SFRP-1 control, single dose.
[4] abbreviates: read-out: Fold Induction without SFRP-1, Conc 15 μM, without SFRP-1, single dose.
[5] abbreviates: read-out: Fold Induction with SFRP-1, Conc 15 μM, single dose, luciferase reporter, fold induction over SFRP-1 control, cells with SFRP-1.
Setting [6] is: read-out: Fold Induction without SFRP-1, Conc 15 μM, single dose, luciferase reporter, cells without SFRP-1 (specificity control).

The IC50 is the point on the concentration scale where inhibition reaches its midpoint. A higher IC50 goes with a need for much substance. With `COc1cccc(C(=O)N2CCC(NS(=O)(=O)c3cc(S(=O)(=O)c4ccccc4)ccc3C)CC2)c1` [Example 463, N-[1-(3-methoxybenzoyl)piperidin-4-yl]-2-methyl-5-(phenylsulfonyl)benzenesulfonamide], the IC50 on SFRP-1 [1] turned out to be 0.7 µM. Moreover, the fold induction at 15 µM was 2.9 at SFRP-1 [2] (setting [3]) and 1 at SFRP-1 [2] (setting [4]).

At SFRP-1 [1], `COc1ccc(C(=O)N2CCC(NS(=O)(=O)c3cc(S(=O)(=O)c4ccccc4)ccc3C)CC2)cc1OC` [Example 464, N-[1-(3,4-dimethoxybenzoyl)piperidin-4-yl]-2-methyl-5-(phenylsulfonyl)benzenesulfonamide] had an IC50 of 3 µM. The fold induction at 15 µM at SFRP-1 [2] (setting [3]) came out at 2.1; on SFRP-1 [2] (setting [4]) it was 1.

On SFRP-1 [1], `Cc1ccc(S(=O)(=O)c2ccccc2)cc1S(=O)(=O)NC1CCN(C(=O)c2cccc(C(F)(F)F)c2)CC1` [Example 465, 2-methyl-5-(phenylsulfonyl)-N-{1-[3-(trifluoromethyl)benzoyl]piperidin-4-yl}benzenesulfonamide] displayed an IC50 of 4 µM. Besides, the fold induction at 15 µM was determined as 1.9 on SFRP-1 [2] (setting [3]) and 1.1 on SFRP-1 [2] (setting [4]).

In turn, `Cc1ccc(S(=O)(=O)c2ccccc2)cc1S(=O)(=O)NC1CCN(C(=O)c2ccc(Cl)cc2)CC1` [Example 466, N-[1-(4-chlorobenzoyl)piperidin-4-yl]-2-methyl-5-(phenylsulfonyl)benzenesulfonamide] came in with an IC50 at SFRP-1 [1] of 1.7 µM. Moreover, the fold induction at 15 µM is 1.7 on SFRP-1 [2] (setting [3]) and 1.1 on SFRP-1 [2] (setting [4]).

`COc1ccc(C(=O)N2CCC(NS(=O)(=O)c3cc(S(=O)(=O)c4ccccc4)ccc3C)CC2)cc1` [Example 467, N-[1-(4-methoxybenzoyl)piperidin-4-yl]-2-methyl-5-(phenylsulfonyl)benzenesulfonamide]: the IC50 at SFRP-1 [1] came out at 1.9 µM. Besides, the fold induction at 15 µM was found to be 2.3 on SFRP-1 [2] (setting [3]) and 1 on SFRP-1 [2] (setting [4]).

For the molecule `Cc1ccc(C(=O)N2CCC(NS(=O)(=O)c3cc(S(=O)(=O)c4ccccc4)ccc3C)CC2)cc1` [Example 468, 2-methyl-N-[1-(4-methylbenzoyl)piperidin-4-yl]-5-(phenylsulfonyl)benzenesulfonamide], the IC50 on SFRP-1 [1] came to 1 µM. Moreover, the fold induction at 15 µM at SFRP-1 [2] (setting [3]) stood at 2; on SFRP-1 [2] (setting [4]), 1.2.

With `Cc1ccc(S(=O)(=O)c2ccccc2)cc1S(=O)(=O)NC1CCN(C(=O)C2CCCCC2)CC1` [Example 471, N-[1-(cyclohexylcarbonyl)piperidin-4-yl]-2-methyl-5-(phenylsulfonyl)benzenesulfonamide], the 50% inhibitory concentration (IC50) on SFRP-1 [1] turned out to be 2.2 µM. The values for the fold induction at 15 µM at SFRP-1 [2] (setting [3]) and on SFRP-1 [2] (setting [4]) were 2.1 and 1.1, respectively.

`CC(C)c1ccc(S(=O)(=O)c2cccc3c(N(C)C)cccc23)cc1S(=O)(=O)NCCc1ccccn1` [Example 474, 5-{[5-(dimethylamino)-1-naphthyl]sulfonyl}-2-isopropyl-N-(2-pyridin-2-ylethyl)benzenesulfonamide]: on SFRP-1 [1], the IC50 was found to be 0.8 µM. The fold induction at 15 µM on SFRP-1 [2] (setting [3]) was determined as 1.4; at SFRP-1 [2] (setting [4]) it was 1.

On to `Cc1ccc(S(=O)(=O)c2ccccc2)cc1S(=O)(=O)NC1CCN(C(=O)c2ccc(C#N)cc2)CC1` [Example 476, N-[1-(4-cyanobenzoyl)piperidin-4-yl]-2-methyl-5-(phenylsulfonyl)benzenesulfonamide], for which, at SFRP-1 [1], the IC50 was determined as 1.4 µM. Further, the results for the fold induction at 15 µM on SFRP-1 [2] (setting [3]) and on SFRP-1 [2] (setting [4]) were 2 and 1, respectively.

Molecule `Cc1ccc(S(=O)(=O)c2ccccc2)cc1S(=O)(=O)NC1CCN(C(=O)c2cccc(C#N)c2)CC1` [Example 477, N-[1-(3-cyanobenzoyl)piperidin-4-yl]-2-methyl-5-(phenylsulfonyl)benzenesulfonamide] displayed an IC50 on SFRP-1 [1] of 2.2 µM. The values for the fold induction at 15 µM on SFRP-1 [2] (setting [3]) and on SFRP-1 [2] (setting [4]) were 2.1 and 1, respectively.

At SFRP-1 [1], `Cc1ccc(S(=O)(=O)c2ccccc2)cc1S(=O)(=O)NC1CCN(S(C)(=O)=O)CC1` [Example 478, 2-methyl-N-[1-(methylsulfonyl)piperidin-4-yl]-5-(phenylsulfonyl)benzenesulfonamide] displayed an IC50 of 1.3 µM. Also, the fold induction at 15 µM at SFRP-1 [2] (setting [3]) was 2.3; on SFRP-1 [2] (setting [4]), 1.

At SFRP-1 [1], `CC(=O)Nc1ccc(C(=O)N2CCC(NS(=O)(=O)c3cc(S(=O)(=O)c4ccccc4)ccc3C)CC2)cc1` [Example 480, N-(4-{[4-({[2-methyl-5-(phenylsulfonyl)phenyl]sulfonyl}amino)piperidin-1-yl]carbonyl}phenyl)acetamide] yielded an IC50 of 2.9 µM. Further, the fold induction at 15 µM at SFRP-1 [2] (setting [3]) was 1.7; on SFRP-1 [2] (setting [4]), 1.

The molecule `Cc1ccc(S(=O)(=O)c2ccccc2)cc1S(=O)(=O)NC1CCN(S(=O)(=O)c2cn(C)cn2)CC1` [Example 481, 2-methyl-N-{1-[(1-methyl-1H-imidazol-4-yl)sulfonyl]piperidin-4-yl}-5-(phenylsulfonyl)benzenesulfonamide] came in with an IC50 on SFRP-1 [1] of 1.2 µM. The figures for the fold induction at 15 µM at SFRP-1 [2] (setting [3]) and on SFRP-1 [2] (setting [4]) were 1.8 and 1, respectively.

`Cc1ccc(S(=O)(=O)c2ccccc2)cc1S(=O)(=O)NC1CCN(S(=O)(=O)c2cccs2)CC1` [Example 482, 2-methyl-5-(phenylsulfonyl)-N-[1-(2-thienylsulfonyl)piperidin-4-yl]benzenesulfonamide]: on SFRP-1 [1], the IC50 is 0.8 µM. Besides, the fold induction at 15 µM on SFRP-1 [2] (setting [3]) worked out at 3.2; on SFRP-1 [2] (setting [4]) it was 1.1.

In turn, `Cc1ccc(S(=O)(=O)c2ccccc2)cc1S(=O)(=O)NC1CCN(C(=O)c2ccc3c(c2)OCO3)CC1` [Example 484, N-[1-(1,3-benzodioxol-5-ylcarbonyl)piperidin-4-yl]-2-methyl-5-(phenylsulfonyl)benzenesulfonamide] had an IC50 on SFRP-1 [1] of 1.5 µM. The fold induction at 15 µM on SFRP-1 [2] (setting [3]) turned out to be 2.4; on SFRP-1 [2] (setting [4]) it was 1.1.

On to `Cc1ccc(S(=O)(=O)c2ccccc2)cc1S(=O)(=O)NC1CCN(C(=O)c2ccno2)CC1` [Example 485, N-[1-(isoxazol-5-ylcarbonyl)piperidin-4-yl]-2-methyl-5-(phenylsulfonyl)benzenesulfonamide], for which the IC50 on SFRP-1 [1] turned out to be 1.7 µM. Further, the figures for the fold induction at 15 µM at SFRP-1 [2] (setting [5]) and on SFRP-1 [2] (setting [6]) were 2.5 and 1, respectively.

`Cc1ccc(S(=O)(=O)c2ccccc2)cc1S(=O)(=O)NC1CCN(C(=O)CN(C)C)CC1` [Example 486, N-[1-(N,N-dimethylglycyl)piperidin-4-yl]-2-methyl-5-(phenylsulfonyl)benzenesulfonamide]: at SFRP-1 [1], the half-maximal inhibitory concentration (IC50) came to 5 µM. Moreover, the fold induction at 15 µM was 2.1 at SFRP-1 [2] (setting [5]) and 1.1 at SFRP-1 [2] (setting [6]).

Molecule `C#CCOC(=O)N1CCC(NS(=O)(=O)c2cc(S(=O)(=O)c3ccccc3)ccc2C)CC1` [Example 487, prop-2-yn-1-yl 4-({[2-methyl-5-(phenylsulfonyl)phenyl]sulfonyl}amino)piperidine-1-carboxylate] gave an IC50 at SFRP-1 [1] of 0.5 µM. The figures for the fold induction at 15 µM on SFRP-1 [2] (setting [5]) and on SFRP-1 [2] (setting [6]) were 2.1 and 1.1, respectively.

Regarding `COC(=O)N1CCC(NS(=O)(=O)c2cc(S(=O)(=O)c3ccccc3)ccc2C)CC1` [Example 488, methyl 4-({[2-methyl-5-(phenylsulfonyl)phenyl]sulfonyl}amino)piperidine-1-carboxylate], at SFRP-1 [1], the IC50 came to 2.1 µM. Also, the results for the fold induction at 15 µM at SFRP-1 [2] (setting [5]) and on SFRP-1 [2] (setting [6]) were 2 and 0.9, respectively.

Source of the values: patent US20060276464A1, “Diarylsulfone sulfonamides and use thereof” (Wyeth, priority 2005, published 2006).
